Results taken from patent US20120172369A1 (priority 2009, published 2012).

Biological target: T1, human DGAT1 enzyme (Homo sapiens, UniProt O75907)
T1 construct: made in house; host or cells: Sf9 insect cells (microsomal membranes)
T1 sequence (O75907 1-488): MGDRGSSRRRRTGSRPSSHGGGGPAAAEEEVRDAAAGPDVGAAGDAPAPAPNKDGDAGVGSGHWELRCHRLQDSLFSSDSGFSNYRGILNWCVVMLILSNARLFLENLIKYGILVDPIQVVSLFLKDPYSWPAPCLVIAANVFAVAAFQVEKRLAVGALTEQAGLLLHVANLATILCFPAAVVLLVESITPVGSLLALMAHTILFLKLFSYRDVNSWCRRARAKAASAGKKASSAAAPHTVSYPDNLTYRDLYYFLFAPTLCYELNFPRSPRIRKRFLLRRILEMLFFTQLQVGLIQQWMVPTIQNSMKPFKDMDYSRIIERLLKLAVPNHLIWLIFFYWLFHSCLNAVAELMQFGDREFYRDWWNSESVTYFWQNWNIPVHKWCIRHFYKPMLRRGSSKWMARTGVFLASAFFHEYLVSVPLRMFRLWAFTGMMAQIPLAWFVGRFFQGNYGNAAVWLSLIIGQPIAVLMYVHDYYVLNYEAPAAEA
Assay: in vitro DGAT1 inhibition assay (microsomes, [14C]-palmitoyl-CoA, SPA beads)
Format: biochemical
Conditions: human DGAT1 expressed in Sf9 insect cells, microsomes; 2 hours at room temperature; read-out: IC50
Procedure: The in vitro assay to identify DGAT1 inhibitors uses human DGAT1 enzyme expressed in Sf9 insect cells prepared as microsomes. The reaction was initiated by the addition of the combined substrates 1,2-dioleoyl-sn-glycerol and [^14C]-palmitoyl-Co A and incubated with test compounds and microsomal membranes for 2 hours at room temperature. The assay was stopped by adding 0.5 mg wheat germ agglutinin beads in assay buffer with 1% Brij-35 and 1% 3-cholamidopropyldimethyl-ammonio-1-propane sulfonate. Plates were sealed with TopSeal and incubated for 18 hours to allow the radioactive triglyceride product to come into proximity with the bead. Plates were read on a TopCount instrument.
Percent inhibition was calculated as the percent of (test compound inhibition minus non-specific binding) relative to (total binding minus non-specific binding). IC50 values were determined by curve fitting the data to a Sigmoidal dose-response in GraphPad Prism utilizing the following equation:
Y=A+(B−A)/(1+10̂((Log IC50−X))),
where A and B are the bottom and top of the curve (highest and lowest inhibition), respectively, and X is the logarithm of concentration.

Row | SMILES | IC50
1 | Cc1c(C(=O)Nc2ccc(N3CC[C@H](COc4ccc(C(=O)O)cc4)C3)nc2)oc2ccc(-c3ccccc3)cc12 [Example 81, (S)-4-((1-(5-(3-methyl-5-phenylbenzofuran-2-carboxamido)pyridin-2-yl)pyrrolidin-3-yl)methoxy)benzoic acid] | 1.06 µM
2 | Cc1c(C(=O)Nc2ccc(N3CCN(C(=O)C(O)C(F)(F)F)CC3)nc2)oc2ccccc12 (stereo not drawn) [Example 3, 3-methyl-N-(6-(4-(3,3,3-trifluoro-2-hydroxypropanoyl)piperazin-1-yl)pyridin-3-yl)benzofuran-2-carboxamide] | 0.589 µM
3 | Cc1c(C(=O)Nc2ccc(N3CCC(OCc4cccc(C(=O)O)c4)CC3)nc2)oc2ccc(-c3ncco3)cc12 [Example 86, 3-((1-(5-(3-methyl-5-(oxazol-2-yl)benzofuran-2-carboxamido)pyridin-2-yl)piperidin-4-yloxy)methyl)benzoic acid] | 0.305 µM
4 | Cc1c(C(=O)Nc2ccc(N3CCN(C(=O)Nc4ccccc4F)CC3)nc2)oc2ccc(-c3cccc(F)c3)cc12 [Example 27, N-(2-fluorophenyl)-4-(5-(5-(3-fluorophenyl)-3-methylbenzofuran-2-carboxamido)pyridin-2-yl)piperazine-1-carboxamide] | 0.316 µM
5 | CCOC(=O)c1ccccc1NC(=O)N1CCN(c2ccc(NC(=O)c3oc4ccc(-c5ccccc5)cc4c3C)cn2)CC1 [Example 14, ethyl 2-(4-(5-(3-methyl-5-phenylbenzofuran-2-carboxamido)pyridin-2-yl)piperazine-1-carboxamido)benzoate] | 0.361 µM

Compounds with a lower IC50, results first:

Row | IC50 | SMILES
6 | 0.171 µM | COc1ccccc1-c1ccc2oc(C(=O)Nc3ccc(N4CCC(COc5cccc(C(=O)O)c5)CC4)nc3)c(C)c2c1 [Example 71]
7 | 0.156 µM | Cc1ccc(C(=O)O)cc1COC1CCN(c2ccc(NC(=O)c3oc4ccc(-c5ccccc5)cc4c3C)cn2)CC1 [Example 78, 4-methyl-3-((1-(5-(3-methyl-5-phenylbenzofuran-2-carboxamido)pyridin-2-yl)piperidin-4-yloxy)methyl)benzoic acid]
8 | 0.115 µM | Cc1c(C(=O)Nc2ccc(N3CCN(C(=O)Nc4ccccc4F)CC3)nc2)oc2ccc(-c3ccccc3F)cc12 [Example 20, N-(2-fluorophenyl)-4-(5-(5-(2-fluorophenyl)-3-methylbenzofuran-2-carboxamido)pyridin-2-yl)piperazine-1-carboxamide]
9 | 0.1 µM | Cc1c(C(=O)Nc2ccc(N3CCN(C(=O)Nc4ccccc4F)CC3)nc2)oc2ccc(-c3ccc(F)cc3)cc12 [Example 40, N-(2-fluorophenyl)-4-(5-(5-(4-fluorophenyl)-3-methylbenzofuran-2-carboxamido)pyridin-2-yl)piperazine-1-carboxamide]
10 | 0.078 µM | Cc1c(C(=O)Nc2ccc(N3CCN(C(=O)Nc4ccccc4F)CC3)nc2)sc2ccc(-c3ccc(F)cc3)cc12 [Example 55, N-(2-fluorophenyl)-4-(5-(5-(4-fluorophenyl)-3-methylbenzo[b]thiophene-2-carboxamido)pyridin-2-yl)piperazine-1-carboxamide]
11 | 0.071 µM | Cc1c(C(=O)Nc2ccc(N3CCC(COc4cccc(C(=O)O)c4)CC3)nc2)oc2ccc(Oc3ccccc3)cc12 [Example 94, 3-((1-(5-(3-methyl-5-phenoxybenzofuran-2-carboxamido)pyridin-2-yl)piperidin-4-yl)methoxy)benzoic acid]
12 | 0.028 µM | Cc1c(C(=O)Nc2ccc(N3CCC(OCc4cccc(C(=O)O)c4)CC3)nc2)sc2ccc(-c3ccccc3)cc12 [Example 51, 3-((1-(5-(3-methyl-5-phenylbenzo[b]thiophene-2-carboxamido)pyridin-2-yl)piperidin-4-yloxy)methyl)benzoic acid]
